How the values were obtained:
swine pancreatic lipase = biological target: T1, swine pancreatic lipase (Sus scrofa, UniProt P00591); assay: Measurement of lipase inhibitory activity (4-UMO fluorescence assay); format: biochemical; details: for IC50: swine pancreatic lipase, 4-UMO substrate, pH 8.0, 30-minute reaction, read-out: Lipase Inhibitory Activities of Various Polyphenols IC50; for lipase inhibitory activity compared with EGCG: in words
T1 construct: purchased Sigma
T1 sequence (P00591 1-450): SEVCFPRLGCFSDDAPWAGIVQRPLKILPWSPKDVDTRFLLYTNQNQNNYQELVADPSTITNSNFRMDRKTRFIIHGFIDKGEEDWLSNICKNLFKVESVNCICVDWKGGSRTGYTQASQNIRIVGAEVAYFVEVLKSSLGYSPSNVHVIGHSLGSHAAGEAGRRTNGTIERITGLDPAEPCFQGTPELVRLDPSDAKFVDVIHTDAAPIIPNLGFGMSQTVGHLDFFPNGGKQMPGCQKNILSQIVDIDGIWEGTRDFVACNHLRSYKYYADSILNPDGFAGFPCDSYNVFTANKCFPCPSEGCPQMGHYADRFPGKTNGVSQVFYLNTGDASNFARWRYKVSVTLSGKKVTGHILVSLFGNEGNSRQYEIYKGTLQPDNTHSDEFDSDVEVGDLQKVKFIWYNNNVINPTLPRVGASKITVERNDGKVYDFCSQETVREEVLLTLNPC
Description: Lipase inhibitory activity can be measured by any one of the lipase activity assays that are described in the prior applications mentioned in the Background Art. As for inhibitory activity against pancreatic lipase, an oleic ester of fluorescent 4-methylumbelliferone may be used as a substrate to measure the fluorescence from 4-methylumbelliferone that is formed by reaction with the lipase. The amount of a sample that provides 50% inhibition of lipase activity (IC50) may be substituted to express lipase inhibitory activity in accordance with the usual method.
For lipase activity measurement, an oleic ester of fluorescent 4-methylumbelliferone (4-UMO) was used as a substrate and the fluorescence from 4-methylumbelliferone formed by enzyme reaction was measured.
The buffer used in the measurement was 13 mM tris-HCl (pH 8.0) containing 150 mM NaCl and 1.36 mM CaCl2. The substrate 4-UMO (product of Sigma-Aldrich Co.) was prepared as 0.1 M solution in DMSO and then diluted 1,000-fold with the buffer. The lipase subjected to enzyme measurement was swine pancreatic lipase (product of Sigma) that had been diluted to a concentration of 400 U/ml with the buffer.
To start the enzyme reaction, 50 μl of buffered 4-UMO solution and 25 μl of distilled water (or an aqueous solution of sample) were loaded and mixed on a 96-well microplate and 25 μl of the buffered lipase solution was then added. After 30-minute reaction, 100 μl of 0.1 M citrate buffered solution (pH 4.2) was added to quench the reaction and the fluorescence from 4-methylumbelliferone (excitation wavelength: 355 nm; fluorescence wavelength: 460 nm), which was generated by the reaction, was measured with a fluorescence plate reader (Fluoroskan Asent CF: product of Labsystems).
The inhibitory activity of the test sample was determined as its amount that would provide 50% inhibition of lipase activity (IC50 in μl) compared to the activity of the control (distilled water).
The lipase inhibitory activities of six compounds (dimers of OHBFs and their trimer), as well as epigallocatechin gallate (EGCG) were measured in accordance with Example 1 and the results are shown in Table 1.

[1] = Superoxide anion radical scavenging activity (hypoxanthine-xanthine oxidase reaction, ESR with DMPO); details: O2- generated by hypoxanthine-xanthine oxidase, DMPO trapping agent
Experimental: The superoxide anion radical scavenging activity was measured by the method to be described in Example 5. Briefly, O2^− was generated by means of hypoxanthine-xanthine oxidase reaction and 5,5-dimethyl-1-pyrrolin-N-oxide was used as a trapping agent to perform measurement by ESR. Measurements were conducted in the presence or absence of compounds of the present invention and the results were expressed as IC50 or the amount of a sample that provided 50% suppression of O2^− generation.
Evaluation was made of the activity for scavenging superoxide anion radicals generated by hipoxanthine-xanthine oxidase reaction, a kind of active oxygen.
After preparing (1) 2 mM hypoxanthine solution (dissolved in 0.1 M phosphate buffered solution at pH 7.4) and (2) 5.5 mM diethylenetriamine-pentaacetic acid (dissolved in 0.1 M phosphate buffered solution at pH 7.4), 5.0 ml of the solution (1), 3.5 ml of the solution (2), and 1.5 ml of 5,5-dimethyl-1-pyrrolin-N-oxide (DMPO, product of LABOTECH) were mixed to make reagent 1. A 50-μl portion of reagent 1 was put in a 1.5-ml microtube and incubated at 37° C. for 4 minutes. To the incubated reagent 1, a methanol solution of the sample was added in an amount of 20 μl and then 50 μl of xanthine oxidase (0.4 units/ml) was added, followed by stirring for 10 seconds. The reaction mixture was injected into a hematocrit tube, which was set in an ESR apparatus and sweeping in a magnetic field was started 60 seconds after addition of xanthine oxidase. The conditions of ESR measurement were as follows: Power, 4 mW; C. Field, 335.5 mT, SwWid (±), 5 mT; SwTime, 1 min; ModWid, 0.1 mT; Amp, 160; TimeC, 0.1 sec; Temperature, 20° C.
Among the ESR signals from DMPO-OOH, the signal of the lowest field strength was compared in height to the internal standard Mn^2+ signal and the ratio (S/M) was assumed to represent the amount of O2^− and the O2^− scavenging activity was calculated by the following formula: O2^− scavenging activity(%)=100−{100×(S/M in the presence of the sample)/(S/M in the absence of the sample)} Results: […]

SMILES | IC50 (swine pancreatic lipase) [nM] | IC50 [1] [nM] | lipase inhibitory activity compared with EGCG (swine pancreatic lipase)
Oc1cc([C@H]2Oc3cc(O)c(Cc4c(O)cc(O)c5c4O[C@H](c4cc(O)c(O)c(O)c4)[C@H](O)C5)c(O)c3C[C@H]2O)cc(O)c1O [Didesgalloyl oolong homobisflavan B (6), didesgalloyl oolong homobisflavan B] | 2080 | – | –
O=C(O[C@@H]1Cc2c(O)cc(O)cc2O[C@@H]1c1cc(O)c(O)c(O)c1)c1cc(O)c(O)c(O)c1 [Epigallocathechin 3-O-gallate (7), (−)-epigallocatechin-3-O-gallate, reference compound] | – | 14000 | –
O=C(O[C@@H]1Cc2c(O)cc(O)c(Cc3c(O)cc(O)c4c3O[C@H](c3cc(O)c(O)c(O)c3)[C@H](OC(=O)c3cc(O)c(O)c(O)c3)C4)c2O[C@@H]1c1cc(O)c(O)c(O)c1)c1cc(O)c(O)c(O)c1 [Oolong homobisflavan A (1), oolong homobisflavan A] | 49 | – | –
O=C(O[C@@H]1Cc2c(cc(O)c(Cc3c(O)cc(O)c4c3O[C@H](c3cc(O)c(O)c(O)c3)[C@H](OC(=O)c3cc(O)c(O)c(O)c3)C4)c2O)O[C@@H]1c1cc(O)c(O)c(O)c1)c1cc(O)c(O)c(O)c1 [Oolong homobisflavan B (2), oolong homobisflavan B] | 108 | – | –

Further lines, with some results ahead:

IC50 (swine pancreatic lipase) [nM] | IC50 [1] [nM] | SMILES | lipase inhibitory activity compared with EGCG (swine pancreatic lipase)
97 | 6200 | O=C(O[C@@H]1Cc2c(cc(O)c(Cc3c(O)cc4c(c3O)C[C@@H](OC(=O)c3cc(O)c(O)c(O)c3)[C@@H](c3cc(O)c(O)c(O)c3)O4)c2O)O[C@@H]1c1cc(O)c(O)c(O)c1)c1cc(O)c(O)c(O)c1 [Oolong homobisflavan C (3), oolong homobisflavan C] | potent lipase inhibitory activity compared with EGCG
129 | 10100 | O=C(O[C@@H]1Cc2c(O)cc(O)c(Cc3c(O)c(Cc4c(O)cc(O)c5c4O[C@H](c4cc(O)c(O)c(O)c4)[C@H](OC(=O)c4cc(O)c(O)c(O)c4)C5)c4c(c3O)C[C@@H](OC(=O)c3cc(O)c(O)c(O)c3)[C@@H](c3cc(O)c(O)c(O)c3)O4)c2O[C@@H]1c1cc(O)c(O)c(O)c1)c1cc(O)c(O)c(O)c1 [Trimer (4)] | potent lipase inhibitory activity compared with EGCG
271 | – | O=C(O[C@@H]1Cc2c(O)cc(O)c(Cc3c(O)cc(O)c4c3O[C@H](c3cc(O)c(O)c(O)c3)[C@H](O)C4)c2O[C@@H]1c1cc(O)c(O)c(O)c1)c1cc(O)c(O)c(O)c1 [monodesgalloyl oolong homobisflavan A] | –
